Structures are written as SMILES. Values after ≈ are worked out from the molar mass of the structure shown. Counter-ions that a name gives are not always drawn. A value given as a limit tells only on which side of the number the result lay.

A word on the MIC: it is the lowest concentration that inhibits growth of the organism. A word on the melting point: it is the temperature, or range, at which the solid turns liquid.

One series concerns Trichophyton rubrum DSM 4167. Kind of series: MIC determination in microtiter plates, Trichophyton rubrum. Format: cell-based. The settings on record: DSM4167, 120 h, Table 2c, 5 days at 28° C., read-out: MIC [ppm] Trichophyton rubrum DSM 4167. As to the method: (§1) Determination of the Minimum Inhibitory Concentration (MIC Value) in Microtiter Plates
(§2) Casein/soybean flour peptone bouillon for the preparation of pre-cultures of the test bacteria and yeast.
(§3) Mycological slant agar for the pre-culture of moulds
(§4) The test substances are pre-dissolved in dimethyl sulfoxide (DMSO) and tested in a dilution series of 1:2.
(§5) Bacteria and yeast are cultured overnight in CASO bouillon, the mould is cultured overnight on mycological slant agar, and washed off with 10 ml of 0.85% sodium chloride solution (+0.1% TritonX-100).
(§6) All the test organisms are adjusted to an organism count of 1−5×10^6 CFU/ml using 0.85% sodium chloride solution.
(§7) The test substances are pre-pipetted into microtiter plates in an amount of 8 μl per well.
(§8) Pre-diluted organism suspensions are diluted 1:100 in CASO bouillon (bacteria and yeast) or Sabouraud 2% glucose bouillon (mould) and are added in an amount of 192 μl per well to the test substances.
(§9) The test batches are incubated for 48 hours at 37° C. (bacteria and yeast) or for 5 days at 28° C. (mould).
(§10) After incubation, the growth is evaluated by reference to the turbidity of the test batches (optical density) at 620 nm in a microplate reader.
(§11) One microtiter plate is used for each test organism and substance concentration. All the substances are tested in duplicate.
For `CCCCCCCCCCCCOc1ccc(CCN)cc1` [Compound 101, 1-Amino-2-(4-dodecyloxyphenyl)ethane], the MIC amounted to 13 µg/mL (≈ 42.6 µM).

The subject of the next series is Corynebacterium xerosis ATCC 373. Nature of the series: MIC determination in microtiter plates, Corynebacterium xerosis. Format: cell-based. The settings on record: ATCC373, Table 2c, 48 hours at 37° C., read-out: MIC [ppm] Corynebacterium xerosis ATCC 373. On the procedure:
as §1, §2, §3, §4, §5, §6, §7, §8, §9, §10, §11
As to `CCCCCCCCCCCCOc1ccc(CCN)cc1` [Compound 101, 1-Amino-2-(4-dodecyloxyphenyl)ethane], the MIC is 6 µg/mL (≈ 19.6 µM).
Regarding `CCCCCCCCCCCCOc1ccc(CCN)cc1OC` [Compound 100, 1-Amino-2-(4-dodecyloxy-3-methoxyphenyl)ethane], the MIC came out at 6 µg/mL (≈ 17.9 µM).

The subject of another series is Actinomyces viscosum DSM 43329. Kind of series: MIC determination in microtiter plates, Actinomyces viscosum. Format: cell-based. The following applies: DSM43329, Table 2c, 48 hours at 37° C., read-out: MIC [ppm] Actinomyces viscosum DSM 43329. On the procedure: as §1, §2, §3, §4, §5, §6, §7, §8, §9, §10, §11
Take `CCCCCCCCCCCCOc1ccc(CCN)cc1OC` [Compound 100, 1-Amino-2-(4-dodecyloxy-3-methoxyphenyl)ethane]: the MIC was determined as 25 µg/mL (≈ 74.5 µM).

Tested on in a further series: not given
Assay: not given
Details: not given
Take `NCCc1cc(OCc2ccccc2)c(OCc2ccccc2)c(OCc2ccccc2)c1` (as salt: hydrochloride): the melting point worked out at 130 °C.

Another series deals with Candida albicans ATCC 10231 (= CA). Kind of series: MIC determination in microtiter plates, Candida albicans. The following applies: ATCC10231, Table 2c, 48 hours at 37° C., read-out: MIC [ppm] Candida albicans ATC 10231. Format: cell-based. As to the method: as §1, §2, §3, §4, §5, §6, §7, §8, §9, §10, §11
`CCCCCCCCCCCCOc1ccc(CCN)cc1` [Compound 101, 1-Amino-2-(4-dodecyloxyphenyl)ethane]: the MIC stood at 50 µg/mL (≈ 164 µM).
Consider `CCCCCCCCCCCCOc1ccc(CCN)cc1OC` [Compound 100, 1-Amino-2-(4-dodecyloxy-3-methoxyphenyl)ethane], for which the MIC amounted to 2 µg/mL (≈ 5.96 µM).

The series is the same for the next values; noted with them: Tables 2a/2b, 48 hours at 37° C., ≦20% growth, optical density 620 nm, some approximate values.
As for `NCCc1cc(OCc2ccccc2)c(OCc2ccccc2)c(OCc2ccccc2)c1` [Compound 70], the “MIC [ppm] CA” value came to 15 ppm.

The next series relates to Propionibacterium acnes ATCC11829. Kind of series: MIC determination in microtiter plates, Propionibacterium acnes. The class given is cell-based. The following applies: Cutibacterium acnes, ATCC11829; Table 2c; 48 hours at 37° C.; read-out: MIC [ppm] Propionibacterium acnes ATCC11829. On the procedure: as §1, §2, §3, §4, §5, §6, §7, §8, §9, §10, §11
On to `CCCCCCCCCCCCOc1ccc(CCN)cc1OC` [Compound 100, 1-Amino-2-(4-dodecyloxy-3-methoxyphenyl)ethane], for which the MIC turned out to be 50 µg/mL (≈ 149 µM).

The next series relates to Streptococcus mutans ATCC 25175. Kind of series: MIC determination in microtiter plates, Streptococcus mutans. Format: cell-based. The following applies: ATCC25175, Table 2c, 48 hours at 37° C., read-out: MIC [ppm] Streptococcus mutans ATCC 25175. As to the method: as §1, §2, §3, §4, §5, §6, §7, §8, §9, §10, §11
Regarding `CCCCCCCCCCCCOc1ccc(CCN)cc1` [Compound 101, 1-Amino-2-(4-dodecyloxyphenyl)ethane], the MIC was 6 µg/mL (≈ 19.6 µM).
On to `CCCCCCCCCCCCOc1ccc(CCN)cc1OC` [Compound 100, 1-Amino-2-(4-dodecyloxy-3-methoxyphenyl)ethane], for which the MIC turned out to be 6 µg/mL (≈ 17.9 µM).

A further series relates to Staphylococcus hominis DMS 20328 (= SH). Kind of series: MIC determination in microtiter plates, Staphylococcus hominis. The class given is cell-based. The settings on record: DSM20328, Table 2c, 48 hours at 37° C., read-out: MIC [ppm] Staphylococcus hominis DSM 20328. On the procedure: as §1, §2, §3, §4, §5, §6, §7, §8, §9, §10, §11
For `CCCCCCCCCCCCOc1ccc(CCN)cc1` [Compound 101, 1-Amino-2-(4-dodecyloxyphenyl)ethane], the MIC was determined as 8 µg/mL (≈ 26.2 µM).
`CCCCCCCCCCCCOc1ccc(CCN)cc1OC` [Compound 100, 1-Amino-2-(4-dodecyloxy-3-methoxyphenyl)ethane]: the MIC amounted to 2 µg/mL (≈ 5.96 µM).

Still in this series, the particulars now being: Tables 2a/2b, 48 hours at 37° C., ≦20% growth, optical density 620 nm, tested at 120, 60, 30, 15, 7.5 and 3.5 ppm, some approximate.
With `NCCc1cc(OCc2ccccc2)c(OCc2ccccc2)c(OCc2ccccc2)c1` [Compound 70], the “MIC [ppm] SH” value worked out at 7.5 ppm.

In another series the test system is Enterococcus hirae ATCC 10541. Nature of the series: MIC determination in microtiter plates, Enterococcus hirae. The settings on record: ATCC10541, Table 2c, 48 hours at 37° C., read-out: MIC [ppm] Enterococcus hirae ATCC 10541. Format: cell-based. As to the method: as §1, §2, §3, §4, §5, §6, §7, §8, §9, §10, §11
For `CCCCCCCCCCCCOc1ccc(CCN)cc1` [Compound 101, 1-Amino-2-(4-dodecyloxyphenyl)ethane], the MIC came to 50 µg/mL (≈ 164 µM).
In the case of `CCCCCCCCCCCCOc1ccc(CCN)cc1OC` [Compound 100, 1-Amino-2-(4-dodecyloxy-3-methoxyphenyl)ethane], the MIC was found to be 25 µg/mL (≈ 74.5 µM).

The subject of a further series is Staphylococcus epidermidis ATCC 12228. Nature of the series: MIC determination in microtiter plates, Staphylococcus epidermidis. The class given is cell-based. The following applies: ATCC12228, Table 2c, 48 hours at 37° C., read-out: MIC [ppm] Staphylococcus epidermidis ATCC 12228. As to the method:
as §1, §2, §3, §4, §5, §6, §7, §8, §9, §10, §11
For the compound `CCCCCCCCCCCCOc1ccc(CCN)cc1` [Compound 101, 1-Amino-2-(4-dodecyloxyphenyl)ethane], the MIC amounted to 13 µg/mL (≈ 42.6 µM).
For `CCCCCCCCCCCCOc1ccc(CCN)cc1OC` [Compound 100, 1-Amino-2-(4-dodecyloxy-3-methoxyphenyl)ethane], the minimum inhibitory concentration (MIC) was found to be 13 µg/mL (≈ 38.7 µM).

The next series concerns Aspergillus niger ATCC 6275 (= AN). Nature of the series: MIC determination in microtiter plates, Aspergillus niger. The class given is cell-based. The following applies: ATCC6275, 120 h, Table 2c, 5 days at 28° C., read-out: MIC [ppm] Aspergillus niger ATCC 6275. On the procedure:
as §1, §2, §3, §4, §5, §6, §7, §8, §9, §10, §11
Consider `CCCCCCCCCCCCOc1ccc(CCN)cc1` [Compound 101, 1-Amino-2-(4-dodecyloxyphenyl)ethane], for which the MIC was determined as 1 µg/mL (≈ 3.27 µM).
Turning to `CCCCCCCCCCCCOc1ccc(CCN)cc1OC` [Compound 100, 1-Amino-2-(4-dodecyloxy-3-methoxyphenyl)ethane], the minimum inhibitory concentration (MIC) is 2 µg/mL (≈ 5.96 µM).

Staying with this series, now noted: Tables 2a/2b, 5 days at 28° C., ≦20% growth, optical density 620 nm, some approximate values.
For `NCCc1cc(OCc2ccccc2)c(OCc2ccccc2)c(OCc2ccccc2)c1` [Compound 70], the “MIC [ppm] AN” value was above 120 ppm.

The next series has as its system Staphylococcus aureus ATCC 9144. Nature of the series: MIC determination in microtiter plates, Staphylococcus aureus. The class given is cell-based. The settings on record: ATCC9144, Table 2c, 48 hours at 37° C., read-out: MIC [ppm] Staphylococcus aureus ATCC 9144. As to the method: as §1, §2, §3, §4, §5, §6, §7, §8, §9, §10, §11
On to `CCCCCCCCCCCCOc1ccc(CCN)cc1` [Compound 101, 1-Amino-2-(4-dodecyloxyphenyl)ethane], for which the MIC came out at 13 µg/mL (≈ 42.6 µM).
With `CCCCCCCCCCCCOc1ccc(CCN)cc1OC` [Compound 100, 1-Amino-2-(4-dodecyloxy-3-methoxyphenyl)ethane], the MIC stood at 25 µg/mL (≈ 74.5 µM).

A further series deals with Escherichia coli NCTC 8196 (= EC). Kind of series: MIC determination in microtiter plates, Escherichia coli. Format: cell-based. The settings on record: Tables 2a/2b, 48 hours at 37° C., ≦20% growth, optical density 620 nm, some approximate values. On the procedure:
as §1, §2, §3, §4, §5, §6, §7, §8, §9, §10, §11
`NCCc1cc(OCc2ccccc2)c(OCc2ccccc2)c(OCc2ccccc2)c1` [Compound 70]: the “MIC [ppm] EC” value came out at 7.5 ppm.

The subject of the next series is Porphyromonas gingivalis DSM 20709. Nature of the series: MIC determination in microtiter plates, Porphyromonas gingivalis. The class given is cell-based. The following applies: DSM20709, Table 2c, 48 hours at 37° C., read-out: MIC [ppm] Porphyromonas gingivalis DSM 20709. As to the method: as §1, §2, §3, §4, §5, §6, §7, §8, §9, §10, §11
Take `CCCCCCCCCCCCOc1ccc(CCN)cc1` [Compound 101, 1-Amino-2-(4-dodecyloxyphenyl)ethane]: the MIC was found to be 25 µg/mL (≈ 81.8 µM).
On to `CCCCCCCCCCCCOc1ccc(CCN)cc1OC` [Compound 100, 1-Amino-2-(4-dodecyloxy-3-methoxyphenyl)ethane], for which the MIC was 25 µg/mL (≈ 74.5 µM).

The test system of the next series is Streptococcus sobrinus DSM 20742. Kind of series: MIC determination in microtiter plates, Streptococcus sobrinus. The class given is cell-based. The following applies: DSM20742, Table 2c, 48 hours at 37° C., read-out: MIC [ppm] Streptococcus sobrinus DSM 20742. On the procedure:
as §1, §2, §3, §4, §5, §6, §7, §8, §9, §10, §11
For `CCCCCCCCCCCCOc1ccc(CCN)cc1` [Compound 101, 1-Amino-2-(4-dodecyloxyphenyl)ethane], the MIC came to 13 µg/mL (≈ 42.6 µM).
Regarding `CCCCCCCCCCCCOc1ccc(CCN)cc1OC` [Compound 100, 1-Amino-2-(4-dodecyloxy-3-methoxyphenyl)ethane], the MIC was determined as 6 µg/mL (≈ 17.9 µM).

In the next series the test system is Pseudomonas aeruginosa CIP A-22 (= PA). Nature of the series: MIC determination in microtiter plates, Pseudomonas aeruginosa. The class given is cell-based. The following applies: Tables 2a/2b, 48 hours at 37° C., ≦20% growth, optical density 620 nm, some approximate values. On the procedure: as §1, §2, §3, §4, §5, §6, §7, §8, §9, §10, §11
With `NCCc1cc(OCc2ccccc2)c(OCc2ccccc2)c(OCc2ccccc2)c1` [Compound 70], the “MIC [ppm] PA” value is on record as above 120 ppm.

The test system of a further series is Epidermophyton floccosum DSM 10709. Kind of series: MIC determination in microtiter plates, Epidermophyton floccosum. Format: cell-based. The settings on record: DSM10709, 120 h, Table 2c, 5 days at 28° C., read-out: MIC [ppm] Epidermophyton floccosum DSM 10709. As to the method: as §1, §2, §3, §4, §5, §6, §7, §8, §9, §10, §11
Regarding `CCCCCCCCCCCCOc1ccc(CCN)cc1` [Compound 101, 1-Amino-2-(4-dodecyloxyphenyl)ethane], the MIC worked out at 3 µg/mL (≈ 9.82 µM).
On the same count and under the same terms, then `CCCCCCCCCCCCOc1ccc(CCN)cc1OC` [Compound 100, 1-Amino-2-(4-dodecyloxy-3-methoxyphenyl)ethane], with 3 µg/mL (≈ 8.94 µM).

Source of the values: US6846492B2, “Use of phenylethylamine derivatives for the antimicrobial treatment of surfaces” (Ciba Specialty Chemicals Corporation, priority 2000, dated 2005).
